Laboratory results as given in patent US20240228488A1 (TAKEDA PHARMACEUTICAL COMPANY LIMITED, priority 2021, published 2024).

Tests used:
[1] = molecular target: human activated kallikrein enzyme (Homo sapiens, UniProt P03952); experiment: Plasma kallikrein inhibition, fluorogenic PFR-AMC substrate, 500 pM activated kallikrein format; type: biochemical; conditions: 500 pM activated kallikrein, 300 uM PFR-AMC, 30 min preincubation, 10 min reaction; read-out: Primary Dose Response Assay: Average EC50
Chain of human activated kallikrein enzyme (P03952 391-638 limits assumed): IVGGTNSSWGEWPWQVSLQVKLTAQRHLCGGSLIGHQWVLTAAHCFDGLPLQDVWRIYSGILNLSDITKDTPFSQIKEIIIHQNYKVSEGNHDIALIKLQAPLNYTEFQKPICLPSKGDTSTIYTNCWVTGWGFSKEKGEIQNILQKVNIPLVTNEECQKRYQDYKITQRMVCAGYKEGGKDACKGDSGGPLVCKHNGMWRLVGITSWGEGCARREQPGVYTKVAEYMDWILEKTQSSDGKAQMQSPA
Chain of human activated kallikrein enzyme (P03952 20-390 partner limits assumed): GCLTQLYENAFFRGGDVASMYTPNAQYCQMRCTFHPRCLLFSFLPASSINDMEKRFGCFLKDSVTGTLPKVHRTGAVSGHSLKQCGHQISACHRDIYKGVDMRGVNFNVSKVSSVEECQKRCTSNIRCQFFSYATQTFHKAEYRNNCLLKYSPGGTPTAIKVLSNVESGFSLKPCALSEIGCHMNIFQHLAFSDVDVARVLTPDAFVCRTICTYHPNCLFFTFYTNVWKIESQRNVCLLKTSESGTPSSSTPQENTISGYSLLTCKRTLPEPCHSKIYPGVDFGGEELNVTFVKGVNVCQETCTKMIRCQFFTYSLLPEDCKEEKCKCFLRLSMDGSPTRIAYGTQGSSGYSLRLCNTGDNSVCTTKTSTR
Method in brief: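 Fluorogenic readout (ex 380 / em 460 nm) after 10 min room-temperature reaction with 300 uM Pro-Phe-Arg-AMC substrate, following 30 min preincubation of inhibitors with 500 pM enzyme. Buffer: Tris pH 7.5, EDTA, NaCl, PEG-400, Triton X-100. Values given as EC50 ranges.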

plasma kallikrein = molecular target: T1, plasma kallikrein (Homo sapiens, UniProt P03952); experiment: Neat human plasma assay, FXIIa contact pathway-activated, PFR-AMC substrate; type: biochemical; conditions: citrated human plasma 78% final, 10 nM human FXIIa, 100 μM PFR-AMC; read-out: Human Plasma Assay: IC90
T1 construct: from tissue
T1 sequence (P03952 391-638 limits assumed): as the sequence (P03952 391-638 limits assumed) above
T1 sequence (P03952 20-390 partner limits assumed): as the sequence (P03952 20-390 partner limits assumed) above
Method in brief: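 Compound inhibition of plasma kallikrein measured as PFR-AMC (100 μM) cleavage rate over 5 min at room temperature in 78% citrated human plasma activated with 10 nM FXIIa (Tris pH 7.5 buffer). IC50/IC90 from 4-parameter fit of rate versus inhibitor concentration.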

Row | SMILES | EC50 [1] | IC90 (plasma kallikrein)
1 | [2H]C([2H])(Nc1cc(NC(=O)[C@H]2C[C@@H]2c2nccc(C)n2)ncn1)c1cn2cc(C3CC3)cc(N3CC(=O)N(C)C3=O)c2n1 (racemic) [Example 391, rac-(1S*,2S*)-N-(6-(((6-cyclopropyl-8-(3-methyl-2,4-dioxoimidazolidin-1-yl)imidazo[1,2-a]pyridin-2-yl)methyl-d2)amino)pyrimidin-4-yl)-2-(4-methylpyrimidin-2-yl)cyclopropane-1-carboxamide] | < 0.001 µM | < 0.4 µM
2 | CN1CC(=O)N(c2cc(C3CC3)cn3cc(CNc4cc(NC(=O)[C@H]5C[C@@H]5c5cccc(Cl)c5)ncn4)nc23)CC1=O [Example 404, (1S,2S)-2-(3-chlorophenyl)-N-(6-(((6-cyclopropyl-8-(4-methyl-2,5-dioxopiperazin-1-yl)imidazo[1,2-a]pyridin-2-yl)methyl)amino)pyrimidin-4-yl)cyclopropane-1-carboxamide] | < 0.001 µM | 0.4 to 1.5 µM
3 | CN1C(=O)CN(c2cc(C3CC3)cn3cc(CNc4cc(NC(=O)[C@H]5C[C@@H]5c5cc(Cl)ccn5)ncn4)nc23)C1=O (single isomer, unassigned) [Example I-264] | < 0.001 µM | 0.4 to 1.5 µM
4 | Cc1ccnc([C@H]2C[C@@H]2C(=O)Nc2cc(N3C[C@@H](O)C[C@@H]3c3cn4cc(C5CC5)ccc4n3)ncn2)n1 (relative stereo) [Example 476, rac-(1S*,2S*)-N-(6-((2R,4S)-2-(6-cyclopropylimidazo[1,2-a]pyridin-2-yl)-4-hydroxypyrrolidin-1-yl)pyrimidin-4-yl)-2-(4-methylpyrimidin-2-yl)cyclopropane-1-carboxamide] | < 0.001 µM | 1.5 to 10 µM
5 | N#Cc1ccc(Cl)cc1[C@H]1C[C@@H]1C(=O)Nc1cc(NCc2cn3cc(C4CC4)cc(N4CCCC4=O)c3n2)ccn1 (racemic) [Example 79, rac-(1S*2S*)-2-(5-chloro-2-cyanophenyl)-N-(4-(((6-cyclopropyl-8-(2-oxopyrrolidin-1-yl)imidazo[1,2-a]pyridin-2-yl)methyl)amino)pyridin-2-yl)cyclopropane-1-carboxamide] | < 0.001 µM | 0.4 to 1.5 µM
6 | CC[C@@H](Nc1cc(NC(=O)[C@H]2C[C@@H]2c2nccc(C)n2)nc(C)n1)c1cn2cc(C3CC3)cc(N3CC(=O)N(C)C3=O)c2n1 [Example 358, (1S,2S)-N-(6-(((R)-1-(6-cyclopropyl-8-(3-methyl-2,4-dioxoimidazolidin-1-yl)imidazo[1,2-a]pyridin-2-yl)propyl)amino)-2-methylpyrimidin-4-yl)-2-(4-methylpyrimidin-2-yl)cyclopropane-1-carboxamide] | < 0.001 µM | 0.4 to 1.5 µM
7 | CC(O)c1cc(C2CC2)cn2cc(CNc3cc(NC(=O)[C@H]4C[C@@H]4c4cccc(Cl)c4)ncn3)nc12 (stereo partly drawn) [Example 281, (1S,2S)-2-(3-chlorophenyl)-N-(6-(((6-cyclopropyl-8-(1-hydroxyethyl)imidazo[1,2-a]pyridin-2-yl)methyl)amino)pyrimidin-4-yl)cyclopropane-1-carboxamide] | 0.001 to 0.01 µM | 10 to 48 µM
8 | N#CCCc1cc(C2CC2)cn2cc(COc3ccnc(NC(=O)[C@H]4C[C@@H]4c4cccc(Cl)c4)c3)nc12 (racemic) [Example 566, rac-(1S*,2S*)-2-(3-chlorophenyl)-N-(4-((8-(2-cyanoethyl)-6-cyclopropylimidazo[1,2-a]pyridin-2-yl)methoxy)pyridin-2-yl)cyclopropane-1-carboxamide] | 0.001 to 0.01 µM | 10 to 48 µM
9 | O=C(Nc1cc(N2C[C@@H](O)C[C@@H]2c2cn3cc(C4CC4)ccc3n2)ncn1)[C@H]1C[C@@H]1c1nccc(Cl)n1 (relative stereo) [Example 481, rac-(1S*,2S*)-2-(4-chloropyrimidin-2-yl)-N-(6-((2R,4S)-2-(6-cyclopropylimidazo[1,2-a]pyridin-2-yl)-4-hydroxypyrrolidin-1-yl)pyrimidin-4-yl)cyclopropane-1-carboxamide] | < 0.001 µM | 1.5 to 10 µM
10 | Cc1nc([C@H]2C[C@@H]2C(=O)Nc2cc(NCc3cn4cc(C5CC5)cc(N5CC(=O)N(C)C5=O)c4n3)ncn2)cs1 (racemic) [Example 493, rac-(1S*,2S*)-N-(6-(((6-cyclopropyl-8-(3-methyl-2,4-dioxoimidazolidin-1-yl)imidazo[1,2-a]pyridin-2-yl)methyl)amino)pyrimidin-4-yl)-2-(2-methylthiazol-4-yl)cyclopropane-1-carboxamide] | 0.001 to 0.01 µM | 0.4 to 1.5 µM
11 | O=C(Nc1cncc(NCc2cn3cc(C4CC4)ccc3n2)c1)[C@H]1C[C@@H]1c1cccc(Cl)c1 (racemic) [Example 574, rac-(1S*,2S*)-2-(3-chlorophenyl)-N-(5-(((6-cyclopropylimidazo[1,2-a]pyridin-2-yl)methyl)amino)pyridin-3-yl)cyclopropane-1-carboxamide] | 0.001 to 0.01 µM | 10 to 48 µM
12 | COc1ccc(C#N)c([C@H]2C[C@@H]2C(=O)Nc2cc(NCc3cn4cc(C5CC5)ccc4n3)ccn2)c1 (single isomer, unassigned) [Example I-224, rac-(1S*,2S*)-2-(2-cyano-5-methoxyphenyl)-N-(4-(((6-cyclopropylimidazo[1,2-a]pyridin-2-yl)methyl)amino)pyridin-2-yl)cyclopropane-1-carboxamide] | < 0.001 µM | 10 to 48 µM
13 | Cc1ccnc([C@H]2C[C@@H]2C(=O)Nc2cc(N[C@H](C)c3cn4cc(C5CC5)cc(N5CCOC5=O)c4n3)ncn2)n1 [Example 534, (1S,2S)-N-(6-(((R)-1-(6-cyclopropyl-8-(2-oxooxazolidin-3-yl)imidazo[1,2-a]pyridin-2-yl)ethyl)amino)pyrimidin-4-yl)-2-(4-methylpyrimidin-2-yl)cyclopropane-1-carboxamide] | < 0.001 µM | < 0.4 µM
14 | O=C(Nc1cc(NCc2cn3cc(C4CC4)cc(N4CCN(CCO)CC4)c3n2)ccn1)[C@H]1C[C@@H]1c1cccc(Cl)c1 [Example 603, (1S,2S)-2-(3-chlorophenyl)-N-(4-(((6-cyclopropyl-8-(4-(2-hydroxyethyl)piperazin-1-yl)imidazo[1,2-a]pyridin-2-yl)methyl)amino)pyridin-2-yl)cyclopropane-1-carboxamide] | < 0.001 µM | < 0.4 µM
15 | Cc1ccnc([C@H]2C[C@@H]2C(=O)Nc2cc(NCc3cn4cc(C5CC5)cc(N5CC(=O)NC5=O)c4n3)ncn2)n1 (racemic) [Example 392, rac-(1S*,2S*)-N-(6-(((6-cyclopropyl-8-(2,4-dioxoimidazolidin-1-yl)imidazo[1,2-a]pyridin-2-yl)methyl)amino)pyrimidin-4-yl)-2-(4-methylpyrimidin-2-yl)cyclopropane-1-carboxamide] | < 0.001 µM | 0.4 to 1.5 µM
16 | CN1C(=O)CN(c2cc(C3CC3)cn3cc(CNc4cc(NC(=O)[C@H]5C[C@@H]5c5cc(Cl)ccn5)ncn4)nc23)C1=O (racemic) [Example I-262, rac-(1S*,2S*)-2-(4-chloropyridin-2-yl)-N-(6-(((6-cyclopropyl-8-(3-methyl-2,4-dioxoimidazolidin-1-yl)imidazo[1,2-a]pyridin-2-yl)methyl)amino)pyrimidin-4-yl)cyclopropane-1-carboxamide] | < 0.001 µM | 0.4 to 1.5 µM
17 | O=C1CN(c2cc(C3CC3)cn3cc(CNc4cc(NC(=O)[C@H]5C[C@@H]5c5cc(Cl)ccn5)nc(O)n4)nc23)C(=O)N1 [Example 487, (1S,2S)-2-(4-chloropyridin-2-yl)-N-(6-(((6-cyclopropyl-8-(2,4-dioxoimidazolidin-1-yl)imidazo[1,2-a]pyridin-2-yl)methyl)amino)-2-hydroxypyrimidin-4-yl)cyclopropane-1-carboxamide] | < 0.001 µM | < 0.4 µM
18 | Cc1ccnc([C@H]2C[C@@H]2C(=O)Nc2cc(NC(C)c3cn4cc(C5CC5)cc(S(C)(=O)=O)c4n3)nc(C)n2)n1 (stereo partly drawn) [Example 363, (1S,2S)-N-(6-((1-(6-cyclopropyl-8-(methylsulfonyl)imidazo[1,2-a]pyridin-2-yl)ethyl)amino)-2-methylpyrimidin-4-yl)-2-(4-methylpyrimidin-2-yl)cyclopropane-1-carboxamide] | < 0.001 µM | 1.5 to 10 µM
19 | Cc1nc(NC(=O)[C@H]2C[C@@H]2c2ncc(F)c(C)n2)cc(N[C@H](C)c2cn3cc(C4CC4)cc(N4CC(=O)N(C)C4=O)c3n2)n1 (relative stereo) [Example 491, rac-(-(1S*,2S*)-N-(6-(((R)-1-(6-cyclopropyl-8-(3-methyl-2,4-dioxoimidazolidin-1-yl)imidazo[1,2-a]pyridin-2-yl)ethyl)amino)-2-methylpyrimidin-4-yl)-2-(5-fluoro-4-methylpyrimidin-2-yl)cyclopropane-1-carboxamide] | < 0.001 µM | 0.4 to 1.5 µM
20 | O=C(Nc1cc(NCc2cn3cc(C4CC4)cc(N4CCSCC4=O)c3n2)ncn1)[C@H]1C[C@@H]1c1cccc(Cl)c1 [Example I-155, (1S,2S)-2-(3-chlorophenyl)-N-(6-(((6-cyclopropyl-8-(3-oxothiomorpholino)imidazo[1,2-a]pyridin-2-yl)methyl)amino)pyrimidin-4-yl)cyclopropane-1-carboxamide] | < 0.001 µM | 1.5 to 10 µM
21 | Cc1ccnc([C@H]2C[C@@H]2C(=O)Nc2cc(OCc3cn4cc(C5CC5)cc(N5CC(=O)N(C)C5=O)c4n3)c(C)nn2)n1 [Example 560, (1S,2S)-N-(5-((6-cyclopropyl-8-(3-methyl-2,4-dioxoimidazolidin-1-yl)imidazo[1,2-a]pyridin-2-yl)methoxy)-6-methylpyridazin-3-yl)-2-(4-methylpyrimidin-2-yl)cyclopropane-1-carboxamide] | < 0.001 µM | < 0.4 µM
